Laboratory results taken from patent US20240345008A1 (Eth Zurich, priority 2021, published 2024).
One block for each molecule: values may come before it. No end group written: not given here.

How the values were obtained:
[1] = molecular target: PIN1 protein (Homo sapiens, UniProt Q13526); assay: prior knowledge / verification of PIN1 binding (Potter et al. 2010; verification); conditions: method of verification not stated
[2] = molecular target: PIN1 protein (peptidyl-prolyl cis-trans isomerase NIMA-interacting 1) (Homo sapiens, UniProt Q13526); assay: photo-CIDNP enhanced NMR ligand-target binding, small molecules vs PIN1 protein; conditions: 100 μM ligand, 25 μM fluorescein, 50 μM PIN1 (ligand 3-4: 25 μM ligand, 15 μM fluorescein, 25 μM PIN1), 450 nm, 1 W, 2 s
PIN1 protein (peptidyl-prolyl cis-trans isomerase NIMA-interacting 1), sequence (Q13526 whole entry, species assumed): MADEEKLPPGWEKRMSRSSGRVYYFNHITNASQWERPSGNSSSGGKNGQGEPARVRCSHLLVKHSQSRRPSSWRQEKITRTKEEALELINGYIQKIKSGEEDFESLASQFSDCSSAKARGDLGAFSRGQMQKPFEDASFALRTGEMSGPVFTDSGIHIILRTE

[3] = molecular target: K-Ras protein (Homo sapiens, UniProt P01116); assay: photo-CIDNP enhanced NMR ligand-target binding with spinlock, small molecules vs K-Ras protein; conditions: 500 μM ligand, 25 μM fluorescein, 100 μM K-Ras, 450 nm, 1 W, 2 s, spinlock 200 ms
[4] = system: PDZ protein domain; assay: photo-CIDNP enhanced NMR ligand-target binding, peptides vs PDZ protein domain (sample A vs B); conditions: 100 μM peptide, 25 μM fluorescein, PDZ 100 μM, 450 nm, 1 W, 4 s, no spin lock
[5] = molecular target: PDZ protein domain; assay: photo-CIDNP NMR titration for dissociation constant of peptide ligand to PDZ protein domain; format: binding; conditions: 47 μM peptide, 25 μM fluorescein, series of PDZ concentrations and irradiation times, 450 nm, fit of equations (7) and (6)
[6] = molecular target: PDZ protein domain; assay: photo-CIDNP enhanced 1H NMR titration, 47 µM peptide against a series of PDZ domain concentrations, fit of equations (7) and (6)

PIN1 protein, sequence (Q13526 whole entry, species assumed): as above

Molecule: WVSAV [Peptide 1]
binding to the target PDZ (signal modified in presence of target) [4]: binding to the target PDZ | Kd [5]: 7 µM

Molecule: WEQLT (Peptide 3)
binding to the target PDZ (signal modified in presence of target) [4]: did not bind

Molecule: O=C(O)Cc1c[nH]c2ccccc12 [ligand 4-4, indoleacetic acid]
binding to the target K-Ras (signal modified in presence of target) [3]: did not bind

Molecule: O=C1NCCCc2c1oc1ccc(O)cc21 [ligand 3-4, 4-hydroxy-8-oxa-11-azatricyclo[7.5.0.0^2,7]tetradeca-1 (9),2,4,6-tetraen-10-one]
binding to the target PIN1 (signal modified in presence of target) [2]: bound to the target PIN1

Molecule: WVSAV-NH2 [Peptide 4]
binding to the target PDZ (signal modified in presence of target) [4]: did not bind

Molecule: WVSAV [Peptide 1 (WVSAV)]
Kd [6]: 7 µM

Next, values leading:

verification of binding to PIN1 [1]: verified to not bind to PIN1 | binding to the target PIN1 (signal modified in presence of target) [2]: did not bind
Molecule: N[C@@H](Cc1c[nH]c2ccccc12)C(=O)O [ligand 3-3, tryptophan]

binding to the target PIN1 (signal modified in presence of target) [2]: bound to the target PIN1
Molecule: Cc1cccc(-c2nc(C(=O)O)c(C)[nH]2)c1 [ligand 3-1, 5-methyl-2-(3-methylphenyl)-imidazole-4-carboxylic acid]

binding to the target K-Ras (signal modified in presence of target) [3]: bound to the target K-Ras
Molecule: COc1ccc(C)cc1NC(=O)Nn1cnnc1 [ligand 4-3, N-(2-methoxy-5-methylphenyl)-N′-4H-1,2,4-triazol-4-ylurea]

binding to the target K-Ras (signal modified in presence of target) [3]: bound to the target K-Ras
Molecule: 5 N-(Furan-2-ylmethyl)-1H-benzimidazol-2-amine)-imidazole-4-carboxylic acid [ligand 4-1]

binding to the target PIN1 (signal modified in presence of target) [2]: bound to the target PIN1
Molecule: Cc1ccc2[nH]cc(C(=O)O)c2c1 [ligand 3-2, 5-methyl-indole-3-carboxylic acid]
